Data: publication PMC10974743, “Design, Synthesis, and Biological Evaluation of Novel Phenoxy Acetic Acid Derivatives as Selective COX-2 Inhibitors Coupled with Comprehensive Bio-Pharmacological Inquiry, Histopathological Profiling, and Toxicological Scrutiny” (Molecules, 2024)
Entries after “also recorded” stand apart in the source; their conditions may differ. Marks after values point to notes of the source that are not given here.

Columns and labels:
[1] = tested on: nociceptive responses on hot plate; assay: Hot plate latency test (analgesic activity); format: in vivo, rats; conditions: for Hot plate latency period: plate 50 °C, mean ± SD, n = 6
Method: The hot plate latency test was performed according to the following procedures (Supplementary Materials, page 54). […]
In summary, thirty rats
The normal control group received 1% CMC, while the remaining groups were administered their respective reference or test compounds. Each rat was gently positioned on a heated plate set at 50 ◦C. The latency period for nociceptive responses, such as paw licking or jumping off the hot plate, was recorded at 30-, 60-, 90-, and 120 minutes post-administration of the reference drugs, test […]

[2] = Assessment of liver and kidney function (serum ALT, AST, creatinine, urea); format: in vivo, rats; set-up: Urea: unit not given here; conditions: mean ± SD; for ALT / AST / AST/ALT / Urea: n = 6; for Creatinine: n = 6, in mg/dL (unit assumed)
Method: These assessments were conducted following the manufacturer’s instructions (Supplementary Materials, page 55).
In-vivo anti-inflammatory activity
(§1) cervical dislocation. […] The percentage
(§2) Weight of the left paw] ×100.
Assessment of inflammatory biomarkers using ELISA

ovine COX-1 = biological target: T1, ovine COX-1 (Ovis aries, UniProt P05979); assay: In vitro COX-1 inhibition assay (Cayman colorimetric COX inhibitor screening kit)
T1 sequence (P05979 25-600): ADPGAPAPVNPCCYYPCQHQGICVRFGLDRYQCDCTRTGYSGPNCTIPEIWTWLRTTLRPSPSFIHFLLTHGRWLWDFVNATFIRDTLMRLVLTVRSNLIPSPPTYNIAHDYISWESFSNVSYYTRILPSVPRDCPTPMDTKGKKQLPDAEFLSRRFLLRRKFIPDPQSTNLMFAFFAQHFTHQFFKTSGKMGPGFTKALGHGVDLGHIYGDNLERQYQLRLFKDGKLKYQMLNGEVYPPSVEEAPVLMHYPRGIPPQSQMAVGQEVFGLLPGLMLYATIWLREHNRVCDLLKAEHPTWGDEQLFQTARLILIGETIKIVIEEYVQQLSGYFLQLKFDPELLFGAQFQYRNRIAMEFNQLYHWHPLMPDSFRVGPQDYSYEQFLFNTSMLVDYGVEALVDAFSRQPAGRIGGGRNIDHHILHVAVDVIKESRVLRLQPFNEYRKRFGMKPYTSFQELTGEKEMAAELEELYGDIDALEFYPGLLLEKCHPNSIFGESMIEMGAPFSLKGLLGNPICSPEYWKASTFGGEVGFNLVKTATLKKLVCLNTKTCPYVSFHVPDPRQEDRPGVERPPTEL
Method: (§7) The in vitro enzyme assays were performed at the Biochemistry Department, Cairo
(§8) General Hospital, Egypt. Cayman® colorimetric COX (ovine) inhibitor screening assay kit (Item
(§9) enzymes in presence of all newly compounds. Generally, this kit is dependent on the reductive
(§10) reaction of COX. A specific antibody binds to PGH2 produced by COX and is further quantified
(§11) by the ELISA technique as previously reported. After that, the selectivity index (SI) was calculated
as the following equation:
𝐒𝐞𝐥𝐞𝐜𝐭𝐢𝐯𝐢𝐭𝐲 𝐢𝐧𝐝𝐞𝐱 (𝐒𝐈) = 𝐈𝐂₅₀𝐨𝐟 𝐂𝐎𝐗 − 𝟏

human COX-2 = biological target: T2, human COX-2 (Homo sapiens, UniProt P35354); assay: In vitro COX-2 inhibition assay (Cayman colorimetric COX inhibitor screening kit); conditions: for IC50: COX-2 IC50, mean ± SEM, n = 3
T2 sequence (P35354 18-604): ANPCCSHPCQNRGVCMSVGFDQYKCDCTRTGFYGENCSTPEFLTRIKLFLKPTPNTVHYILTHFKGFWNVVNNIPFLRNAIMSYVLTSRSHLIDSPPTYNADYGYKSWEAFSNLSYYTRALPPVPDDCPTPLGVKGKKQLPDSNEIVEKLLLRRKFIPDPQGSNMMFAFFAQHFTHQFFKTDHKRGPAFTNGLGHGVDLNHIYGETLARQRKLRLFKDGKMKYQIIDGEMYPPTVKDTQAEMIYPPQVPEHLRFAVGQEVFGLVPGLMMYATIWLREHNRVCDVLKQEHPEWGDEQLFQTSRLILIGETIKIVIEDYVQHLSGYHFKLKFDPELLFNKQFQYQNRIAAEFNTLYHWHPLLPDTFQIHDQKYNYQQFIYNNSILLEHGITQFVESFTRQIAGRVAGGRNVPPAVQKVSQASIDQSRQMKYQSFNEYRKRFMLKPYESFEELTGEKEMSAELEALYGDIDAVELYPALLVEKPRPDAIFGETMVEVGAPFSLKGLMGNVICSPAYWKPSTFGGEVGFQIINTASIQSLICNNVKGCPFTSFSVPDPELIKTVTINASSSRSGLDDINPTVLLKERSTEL
Method: as §7, §8, §9, §10, §11
as the following equation:
𝐒𝐞𝐥𝐞𝐜𝐭𝐢𝐯𝐢𝐭𝐲 𝐢𝐧𝐝𝐞𝐱 (𝐒𝐈) = 𝐈𝐂₅₀𝐨𝐟 𝐂𝐎𝐗 − 𝟏

gastric mucosa = assay: Evaluation of ulcerogenic effects (macroscopic scores and gastric histopathology); conditions: for Gastric mucosa histopathological finding: H&E staining; for Ulcer Number Score / Ulcer Severity Score: mean ± SD; for Ulcer Number Score: n = 6; for Ulcer Severity Score: n = 6, scale 0 to 5
Method: The assessment of ulcerogenic effects was conducted following established procedures [42, 57]
Following the experimental period, the animals were euthanized using pentobarbital sodium (100 mg/kg), and blood was collected via jugular vein exsanguination for later evaluation of liver and kidney function, and subsequently sacrificed by cervical dislocation. […] Following this, the animals' stomachs were removed, inflated, and opened along the greater curvature to evaluate ulcerogenic effects.
B: Ulcer lesion severity scoring system
2.5 More than 10 small ulcers
3 1 marked ulcer plus 0 to 4 small ulcers
3.5 1 marked ulcer plus 5 or more small ulcers
4 2 marked ulcers plus 0 to 4 small ulcers
4.5 2 marked ulcers plus 5 or more small ulcers
5 3 or more marked ulcers
The statistical analysis of the data was conducted using GraphPad Prism 9.5.1 Demo
(GraphPad Software, San Diego, CA). One -way analysis of variance (ANOVA) was utilized to
evaluate differences among the various groups, except for paw edema volume, which un derwent
analysis using two -way ANOVA. Post -hoc analysis was performed using Tukey's multiple
significance set at P < 0.05

[3] = tested on: paw tissue, carrageenan paw edema model; assay: Histopathological examination of paws, inflammatory cell infiltration score; format: in vivo, rats; conditions: for Paw histopathological finding: H&E staining, carrageenan paw edema; for Reduction in inflammatory cell infiltration score: vs carrageenan group, paw, 5 hours
Method: The histopathological assessments were performed according to the following procedures (Supplementary Materials, page 54). […]
Histopathological examination
Thirty-six rats were separated into six groups of six rats each for histological assessment […]
groupings consisted of a control group, a carrageenan group, two groups for the reference drugs […]
protocols that were utilized in the in-vivo anti-inflammatory activity test were used. After a duration of 5 hours, the animals were euthanized, and their left paws were amputated. The paws were preserved in 10% neutral buffered formalin, trimmed, washed, dehydrated in increasing concentrations of ethyl alcohol, clarified in xylene, and ultimately embedded in paraffin. They were then sliced into 4-6µ thick slices, stained with Hematoxylin and Eosin, and examined under a light microscope. A scoring system was used to evaluate the degree of inflammation, dividing it into six categories ranging from 0 indicating no inflammation to 5 indicating severe inflammation.
Each score corresponded to a certain level of inflammation: 0 for no inflammation, 1 for mild inflammation, 2 for mild to moderate inflammation, 3 for moderate inflammation, 4 for moderate to severe inflammation, and 5 for severe inflammation.

PGE2 = PGE2 content of paw exudate by ELISA, carrageenan paw edema model; format: in vivo, Sprague Dawley rats; conditions: vs carrageenan group
Method: (§3) ELISA assessment assays were conducted as cited (Supplementary Materials, page 53).
(§4) In-vivo anti-inflammatory activity […]
as §1, §2
(§5) Assessment of inflammatory biomarkers using ELISA […]
(§6) content, using enzyme -linked immunosorbent assay (ELISA). The ELISA kits were purchased from CLOUD -CLONE CORP (CCC, USA) (Cat# SEA133Ra) and MyBioSource company (British Columbia, Canada) (Cat# MBS730592) respectively, and the assays were performed following the manufacturer' s instructions. Additionally, the protein content of the exudates was determined using the Bradford method.

[4] = tested on: carrageenan-induced paw edema; assay: Carrageenan paw edema test (paw thickness, paw weight); conditions: for Paw thickness difference: oral; for Paw thickness difference / Paw Weight Increase: mean ± SD, n = 6; for Paw Weight Increase: right vs left paw, after 5 h
Method: The carrageenan paw edema test was conducted following established procedures as detailed (Supplementary Materials, page 53).
The carrageenan paw edema test was conducted following established procedures. In summary, seventy-two rats were randomly assigned to twelve groups, each comprising six rats.
These groups included normal controls, carrageenan controls (both receiving the vehicle; 1%
Acute inflammation was induced in the right hind paws of all rats one hour after oral administration of the respective compounds or vehicle. This was achieved by injecting a freshly prepared 0.1 mL carrageenan suspension (1% in normal saline) subplantarly into the right hind paw, except for the normal control group, which received a saline injection. Paw thickness was measured hourly (Ct) until the fifth hour (C5) post-carrageenan injection (C0). The hourly increase in paw thickness (paw thickness difference) was calculated by subtracting the initial measurement (C0) from the thickness at each hour (Ct), and the results were presented as the mean increase in paw thickness (mm). To evaluate anti-inflammatory effects, the percentage of inhibition for each standard and test compound was determined using the formula: percentage of inhibition (%) = [(Paw thickness difference of carrageenan group - Paw thickness difference of treated)/ Paw thickness difference of carrageenan group] × 100. […] The paws were then excised and weighed (both left and right). The percentage of weight increase between the left and right paws of each animal was calculated using the equation: Percentage of weight increase = [(Weight of the right paw - Weight of the left paw) / Weight of the left paw] ×100.

TNF-α = TNF-α content of paw exudate by ELISA, carrageenan paw edema model; format: in vivo, Sprague Dawley rats; conditions: vs carrageenan group
Method: as §3, §4, §1, §2, §5, §6

COX-2 = conditions: cited from earlier work
[5] = compared to the normal control group

Row | Structure (SMILES) | Hot plate latency period ([1]; 30 min post-administration) | Hot plate latency period ([1]; 60 min post-administration) | Hot plate latency period ([1]; 90 min post-administration) | Hot plate latency period ([1]; 120 min post-administration) | ALT [2] | AST [2] | AST/ALT [2] | Urea [2] | Creatinine [2] | IC50 (ovine COX-1) | IC50 (human COX-2) | Gastric mucosa histopathological finding (gastric mucosa) | Ulcer Number Score (gastric mucosa) | Ulcer Severity Score (gastric mucosa) | Paw histopathological finding [3] | Reduction in inflammatory cell infiltration score [3] | Reduction of PGE2 exudate content (PGE2) | Paw thickness difference ([4]; 1st h after carrageenan) | Percentage of inhibition of paw thickness ([4]; 1st h, vs carrageenan group) | Paw thickness difference ([4]; 2nd h after carrageenan) | further results
1 | O=C(O)COc1ccc(Br)cc1C=NNC(=O)Cc1ccccc1 [Compound 7b, 2-(4-Bromo-2-((2-(2-phenylacetyl)hydrazineylidene)methyl)phenoxy)acetic acid] | 8.88 ± 0.29 ^ac | 10.35 ± 0.35 ^ac | 12.09 ± 0.29 ^ac | 13.71 ± 0.31 ^a | 89.13 ± 8.53 IU/L | 97.59 ± 6.19 IU/L | 1.10 ± 0.12 | 27.16 ± 1.53 | 0.68 ± 0.05 | 5.93 ± 0.12 µM | 0.06 ± 0.01 µM | infiltration of gastric mucosa by a few numbers of mononuclear inflammatory cells | 0.67 ± 0.52 | 0.42 ± 0.38 | dermal infiltration by a moderate number of mononuclear inflammatory cells; also recorded: moderate infiltration of mononuclear inflammatory cells in the dermis | 62.96% | 57.07% | 0.65 ± 0.16 mm | 67.23% | 1.08 ± 0.21 mm | Increase in latency period ([1]; 30 min mark): 37.67%; Increase in latency period ([1]; 120 min mark): 44.90%; Percentage of inhibition of paw thickness ([4]; 2nd h, vs carrageenan group): 67.11%; Paw thickness difference ([4]; 3rd h after carrageenan): 1.64 ± 0.13 mm; Percentage of inhibition of paw thickness ([4]; 3rd h, vs carrageenan group): 61.23%; Paw thickness difference ([4]; 4th h after carrageenan): 1.90 ± 0.19 mm; Percentage of inhibition of paw thickness ([4]; 4th h, vs carrageenan group): 62.42%; Paw thickness difference ([4]; 5th h after carrageenan): 1.95 ± 0.19 mm; Paw Weight Increase [4]: 33.07 ± 1.88 ^ab %; Inhibition of percentage of paw weight increase ([4]; vs carrageenan group): 64.84%; Reduction of TNF-α exudate content (TNF-α): 64.88%
2 | Cc1cccc(Nc2ccccc2C(=O)O)c1C [Mefenamic acid, mefenamic acid, reference compound] | 9.95 ± 0.35 ^ab | 11.58 ± 0.25 ^ab | 12.83 ± 0.36 ^ab | 13.73 ± 0.42 ^a | 88.84 ± 6.09 IU/L | 97.51 ± 8.08 IU/L | 1.10 ± 0.15 | 27.58 ± 2.08 | 0.72 ± 0.05 | 29.9 ± 0.09 µM | 1.98 ± 0.02 µM | ulcer formation with desquamation of gastric mucosal epithelium; also recorded: ulcer development and desquamation of the stomach mucosal epithelium | 1.67 ± 0.82 ^a | 1.17 ± 0.61 ^a | infiltration of dermis by high number of inflammatory cells mainly lymphocytes and eosinophils; also recorded: significant cutaneous infiltration by inflammatory cells | 37.04% | 59.37% | 1.22 ± 0.19 mm | 38.43% | 2.27 ± 0.11 mm | Increase in latency period ([1]; 60 min mark): 58.38%; SI (COX-2 selectivity index) (human COX-2; COX-1 (IC50)/COX-2 (IC50)): 15.10; Increase in ulcer number (gastric mucosa; [5]): 233.33%; Increase in ulcer severity score (gastric mucosa; [5]): 366.67%; IC50 (COX-2): 5.3 µM; Percentage of inhibition of paw thickness ([4]; 2nd h, vs carrageenan group): 31.22%; Paw thickness difference ([4]; 3rd h after carrageenan): 2.86 ± 0.11 mm; Percentage of inhibition of paw thickness ([4]; 3rd h, vs carrageenan group): 32.37%; Paw thickness difference ([4]; 4th h after carrageenan): 3.22 ± 0.19 mm; Percentage of inhibition of paw thickness ([4]; 4th h, vs carrageenan group): 36.16%; Paw thickness difference ([4]; 5th h after carrageenan): 3.51 ± 0.07 mm; Percentage of inhibition of paw thickness ([4]; 5th h, vs carrageenan group): 33.89%; Paw Weight Increase [4]: 34.08 ± 2.27 ^ab %; Reduction of TNF-α exudate content (TNF-α): 60.09%
